US20190100534A1, “Cephem Compounds with Latent Reactive Groups” (Gladius Pharmaceuticals, Inc., priority 2017, published 2019)

Key:
[1] = tested on: Pseudomonas aeruginosa PA-RR-(G8062859); assay: MIC determination; assay type: cell-based; conditions: Pseudomonas aeruginosa; PA-RR-(G8062859); CAMH broth, 20 μM Apo-Transferrin, 37° C., 18 hours; read-out: Minimum Inhibitory Concentrations, PA-RR-(G8062859)
Outline: (§1)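 Broth microdilution in cation-adjusted Mueller-Hinton broth with 20 μM apo-transferrin, two-fold compound series from 64 μg/mL, inoculum adjusted to 0.5 McFarland from 4-5 h LB cultures. Plates incubated 18 h at 37 °C. MIC taken as lowest concentration leaving a clear well.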

[2] = tested on: Pseudomonas aeruginosa PA-RR-(purple Fre D); assay: MIC determination; assay type: cell-based; conditions: Pseudomonas aeruginosa, CAMH broth, 20 μM Apo-Transferrin, 37° C., 18 hours, read-out: Minimum Inhibitory Concentrations, PA-RR-(purple Fre D)
Outline: as §1

EC (RR -1) = assay: MIC determination; assay type: cell-based, Escherichia coli; conditions: CAMH broth, 20 μM Apo-Transferrin, 37° C., 18 hours
Description: (§2) Sterile technique was used throughout these experiments. Suspensions of organisms were removed from storage (−80° C.) and partially thawed. Partially thawed organisms (1 μL) were inoculated into 3 mL sterile LB Broth in a sterile culture tube and capped, then cultured at 37° C. with shaking for 4-5 hours until the optical density at 600 nm (OD600) was greater than 0.1 on a single beam spectrophotometer.
(§3) The concentration of organisms was adjusted to 0.08-0.1 OD600 (0.5 McFarland units) by dilution with sterile cation-adjusted Meuller-Hinton (CAMH) broth. The suspensions were used within 30 minutes of preparation.
(§4) A stock solution was made of each test compound by measuring 6.4 mg of the compound on an analytical balance and dissolving it in DMSO (1 mL) to get a transparent solution. The solutions were stored at −20° C. and thawed prior to use.
(§5) Sterile CAMH broth (200 μL) containing 20 μM Apo-Transferrin was pipetted into the first row of 8 columns of a sterile, round-bottomed, transparent, 96-well microplate using an 8-channel pipette equipped with sterile tips. One hundred μL was pipetted into the wells of the remaining 11 rows.
(§6) With an 8-channel pipette equipped with sterile tips, 100 μL of the first row solution was transferred to the second row and mixed. The process was repeated for the second to third rows and continued through row 11. One hundred μL from row 11 was removed and discarded so that all 12 rows contained 100 μL. Row 12 contained no compound and rows 1-11 contained 64, 32, 16, 8, 4, 2, 1, 0.5, 0.25, 0.125, […] of a given compound.
(§7) Inoculant suspensions (0.5 μL) were added to the 12 wells of each column. The plates were then covered and incubated at 37° C. overnight for 18 hours.
(§8) For each organism the MIC was determined by identifying the transparent well with the lowest test compound concentration.

EC (RR -2) = assay: MIC determination; assay type: cell-based, Escherichia coli; conditions: CAMH broth, 20 μM Apo-Transferrin, 37° C., 18 hours
Description: as §2, §3, §4, §5, §6, §7, §8

EC (URMC-1) = assay: MIC determination; assay type: cell-based, Escherichia coli; conditions: Escherichia coli, CAMH broth, 20 μM Apo-Transferrin, 37° C., 18 hours, read-out: Minimum Inhibitory Concentrations, EC (URMC-1)
Description: as §2, §3, §4, §5, §6, §7, §8

EC (URMC-2) = assay: MIC determination; assay type: cell-based, Escherichia coli; conditions: Escherichia coli, CAMH broth, 20 μM Apo-Transferrin, 37° C., 18 hours, read-out: Minimum Inhibitory Concentrations, EC (URMC-2)
Description: as §2, §3, §4, §5, §6, §7, §8

EC (URMC-3) = assay: MIC determination; assay type: cell-based, Escherichia coli; conditions: Escherichia coli, CAMH broth, 20 μM Apo-Transferrin, 37° C., 18 hours, read-out: Minimum Inhibitory Concentrations, EC (URMC-3)
Description: as §2, §3, §4, §5, §6, §7, §8

EC(ATCC NDM-1) = assay: MIC determination; assay type: cell-based, Escherichia coli; conditions: Escherichia coli, CAMH broth, 20 μM Apo-Transferrin, 37° C., 18 hours, read-out: Minimum Inhibitory Concentrations, EC(ATCC NDM-1)
Description: as §2, §3, §4, §5, §6, §7, §8

EC(JMI OXA-48) = assay: MIC determination; assay type: cell-based, Escherichia coli; conditions: Escherichia coli, CAMH broth, 20 μM Apo-Transferrin, 37° C., 18 hours, read-out: Minimum Inhibitory Concentrations, EC(JMI OXA-48)
Description: as §2, §3, §4, §5, §6, §7, §8

EC(KB1 CTX-M-15) = assay: MIC determination; assay type: cell-based, Escherichia coli; conditions: Escherichia coli, CAMH broth, 20 μM Apo-Transferrin, 37° C., 18 hours, read-out: Minimum Inhibitory Concentrations, EC(KB1 CTX-M-15)
Description: as §2, §3, §4, §5, §6, §7, §8

EC(KB2 CTX-M-15) = assay: MIC determination; assay type: cell-based, Escherichia coli; conditions: Escherichia coli, CAMH broth, 20 μM Apo-Transferrin, 37° C., 18 hours, read-out: Minimum Inhibitory Concentrations, EC(KB2 CTX-M-15)
Description: as §2, §3, §4, §5, §6, §7, §8

KP (ATCC KPC-3) = assay: MIC determination; assay type: cell-based, Klebsiella pneumoniae; conditions: CAMH broth, 20 μM Apo-Transferrin, 37° C., 18 hours
Description: as §2, §3, §4, §5, §6, §7, §8

KP (GJ 5659 TEM-26) = assay: MIC determination; assay type: cell-based, Klebsiella pneumoniae; conditions: CAMH broth, 20 μM Apo-Transferrin, 37° C., 18 hours
Description: as §2, §3, §4, §5, §6, §7, §8

KP (RR -1) = assay: MIC determination; assay type: cell-based, Klebsiella pneumoniae; conditions: CAMH broth, 20 μM Apo-Transferrin, 37° C., 18 hours
Description: as §2, §3, §4, §5, §6, §7, §8

KP (URMC-1) = assay: MIC determination; assay type: cell-based, Klebsiella pneumoniae; conditions: CAMH broth, 20 μM Apo-Transferrin, 37° C., 18 hours
Description: as §2, §3, §4, §5, §6, §7, §8

KP (URMC-2) = assay: MIC determination; assay type: cell-based, Klebsiella pneumoniae; conditions: CAMH broth, 20 μM Apo-Transferrin, 37° C., 18 hours
Description: as §2, §3, §4, §5, §6, §7, §8

KP (URMC-3) = assay: MIC determination; assay type: cell-based, Klebsiella pneumoniae; conditions: CAMH broth, 20 μM Apo-Transferrin, 37° C., 18 hours
Description: as §2, §3, §4, §5, §6, §7, §8

KP(GJ 5934 TEM-26) = assay: MIC determination; assay type: cell-based, Klebsiella pneumoniae; conditions: CAMH broth, 20 μM Apo-Transferrin, 37° C., 18 hours
Description: as §2, §3, §4, §5, §6, §7, §8

KP(JMI KPC-2) = assay: MIC determination; assay type: cell-based, Klebsiella pneumoniae; conditions: CAMH broth, 20 μM Apo-Transferrin, 37° C., 18 hours
Description: as §2, §3, §4, §5, §6, §7, §8

KP(ATCC TEM-10/TEM-12) = assay type: cell-based, Klebsiella pneumoniae; conditions: CAMH broth, 20 μM Apo-Transferrin, 37° C., 18 hours
Description: as §2, §3, §4, §5, §6, §7, §8

PM (RR -1) = assay: MIC determination; assay type: cell-based, Proteus mirabilis; conditions: CAMH broth, 20 μM Apo-Transferrin, 37° C., 18 hours
Description: as §2, §3, §4, §5, §6, §7, §8

ENC (ATCC NDM-1) = assay: MIC determination; assay type: cell-based, Enterobacter cloacae; conditions: CAMH broth, 20 μM Apo-Transferrin, 37° C., 18 hours
Description: as §2, §3, §4, §5, §6, §7, §8

[3] = tested on: Isogenic E. coli J58 strain carrying SHV-1; assay: MIC determination, isogenic E. coli strains; assay type: cell-based; conditions: Escherichia coli, 18 h, read-out: Mimimum Inhibitory Concentrations, SHV-1
Outline: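 MIC is the lowest compound concentration leaving a transparent well after overnight (18 h) incubation at 37 °C. The test strain was E. coli J53 expressing plasmid-borne SHV-1 beta-lactamase from pBC-SK(+), adjusted to 0.5 McFarland. Compounds were twofold serially diluted, starting at 64 μg/mL, in CAMH broth supplemented with 20 μM apo-transferrin.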

SMILES: CC(C)(O/N=C(\C(=O)N[C@@H]1C(=O)N2C(C(=O)O)=C(C=Cc3ccc(C[N+]4(C)Cc5c(Cl)c(O)c(O)c(Cl)c5C4)cc3)CS[C@H]12)c1csc(N)n1)C(=O)O (mixture of isomers) [Compound 431, 2-(4-((E/Z)-2-((6R,7R)-7-((Z)-2-(2-aminothiazol-4-yl)-2-(((2-carboxypropan-2-yl)oxy)imino)acetamido)-2-carboxy-8-oxo-5-thia-1-azabicyclo[4.2.0]oct-2-en-3-yl)vinyl)benzyl)-4,7-dichloro-5,6-dihydroxy-2-methylisoindolin-2-ium]
- MIC [1]: 0.5 µg/mL
- MIC [2]: 0.5 µg/mL
- Mimimum Inhibitory Concentrations, EC (RR -1) (EC (RR -1)): ≤0.06 microgram/mL
- Mimimum Inhibitory Concentrations, EC (RR -2) (EC (RR -2)): ≤0.06 microgram/mL
- MIC (EC (URMC-1)): 0.25 µg/mL
- MIC (EC (URMC-2)): ≤ 0.06 µg/mL
- MIC (EC (URMC-3)): 0.25 µg/mL
- MIC (EC(ATCC NDM-1)): > 64 µg/mL
- MIC (EC(JMI OXA-48)): 0.5 µg/mL
- MIC (EC(KB1 CTX-M-15)): 2 µg/mL
- MIC (EC(KB2 CTX-M-15)): 2 µg/mL
- Minimum Inhibitory Concentrations, KP (ATCC KPC-3) (KP (ATCC KPC-3)): >64 microgram/mL
- Minimum Inhibitory Concentrations, KP (GJ 5659 TEM-26) (KP (GJ 5659 TEM-26)): 0.5 microgram/mL
- Mimimum Inhibitory Concentrations, KP (RR -1) (KP (RR -1)): 0.13 microgram/mL
- Minimum Inhibitory Concentrations, KP (URMC-1) (KP (URMC-1)): 0.25 microgram/mL
- Minimum Inhibitory Concentrations, KP (URMC-2) (KP (URMC-2)): 0.13 microgram/mL
- Minimum Inhibitory Concentrations, KP (URMC-3) (KP (URMC-3)): ≤0.06 microgram/mL
- Minimum Inhibitory Concentrations, KP(GJ 5934 TEM-26) (KP(GJ 5934 TEM-26)): 0.5 microgram/mL
- Minimum Inhibitory Concentrations, KP(JMI KPC-2) (KP(JMI KPC-2)): 8 microgram/mL
- Minimum Inhibitory Concentrations, KP(ATCC TEM-10/TEM-12) (KP(ATCC TEM-10/TEM-12)): 16 microgram/mL
- Mimimum Inhibitory Concentrations, PM (RR -1) (PM (RR -1)): ≤0.06 microgram/mL
- Mimimum Inhibitory Concentrations, ENC (ATCC NDM-1) (ENC (ATCC NDM-1)): >64 microgram/mL
- MIC [3]: 0.13 µg/mL
